Measurements published in patent publication US4229461A, “Fungicidal 6-(3,5-dichlorophenyl)perhydroimidazo[5,1-b]thiazole derivatives” (Mitsubishi Chemical Industries Limited, priority 1978, dated 1980).
In brackets after ≈: the same amount, converted by molar mass.

Columns and labels:
[1] = tested on: Sclerotinia sclerotiorum; experiment: Preventive test against kidney bean stem rot; type: in vivo; conditions: 4 days, 25° C.
Method: Kidney bean plants (cultivar: Kintoki) were each grown in a 15 cm.phi. plastic pot to the trifoliate stage. The plants were sprayed with 10 ml/l pot of an aqueous diluted suspension of wettable powders of the chemicals of the invention and comparison chemical.
The wettable powders were prepared in a manner similar to example 1. After air drying for 5 hours, the plants were inoculated with mecelia of Sclerotinia sclerotiorum incubated with shaking in a Yeast-Glucose liquid medium, and kept in a humidic chamber at 25° C. for 4 days. Then the preventive value was calculated according to the equation given in test example 1.

[2] = tested on: Botrytis cinerea (strain II); experiment: Antifungal Test (PDA medium), Botrytis cinerea (strain II); type: cell-based; conditions: 96 h, resistant to benzoimidazole type fungicide, 25° C., 4 days, read-out: MIC Concentration
Method: (§1) Each chemical was mixed with PDA medium in an amount enough to obtain the pre-determined concentration level and solidified in 9 cm.phi. Petri dish. Then, various plant disease fungi were inoculated on the middle of the mixed agar plate and cultured at 25° C. for 4 days.
(§2) The minimum inhibition concentration (MIC) means that at which the development of the inoculated fungus was not recognized with the naked eye.
*Botrytis cinerea (strain II) is the strain resistant to
benzoimidazoletype fungicide e.g. Benlate, TopsinM.

[3] = tested on: Altrenaria mali; experiment: Antifungal Test (PDA medium), Altrenaria mali; type: cell-based; conditions: 96 h, 25° C., 4 days, read-out: MIC Concentration
Method: as §1, §2

[4] = tested on: Botrytis cinerea (strain I); experiment: Antifungal Test (PDA medium), Botrytis cinerea (strain I); type: cell-based; conditions: 96 h, 25° C., 4 days, read-out: MIC Concentration
Method: as §1, §2

[5] = tested on: Altrenaria Kikuchiana; experiment: Antifungal Test (PDA medium), Altrenaria Kikuchiana; type: cell-based; conditions: 96 h, 25° C., 4 days, read-out: MIC Concentration
Method: as §1, §2

[6] = tested on: Cochliobolus miyabeans; experiment: Preventive test against Rice brown spot disease; type: in vivo, Cochliobolus miyabeans on rice plants (cultivar: Kinmaze); conditions: Oryza sativa, 48 h, read-out: Preventive Value
Method: Rice plants (cultivar: Kinmaze) were each grown in a 10 cm.phi. porcelain pot to the 3-4 leaves stage. The plants were sprayed with 10 ml/l pot of aqueous diluted suspensions of various types of wettable powders of the chemicals of the invention and comparison chemical [bis(dimethyl thiocarbamoyl)disulfide). The wettable powders were prepared in a manner similar to test example 1.
After air drying for 5 hours, the plants were inoculated with a spore suspension of Cochliobolus miyabeans incubated with a chaffy medium at 25° C. for 5 days.
These plants were kept in the humidic chamber at 27° C. for 48 hours after inoculation and the number of lesions were counted and preventive value was calculated according to the following equation. [formula]

[7] = tested on: Sclerotinia sclerotiorum; experiment: Antifungal Test (PDA medium), Sclerotinia sclerotiorum; type: cell-based; conditions: 96 h, 25° C., 4 days, read-out: MIC Concentration
Method: as §1, §2

[8] = tested on: Botrytis cinerea; experiment: Preventive test against Cucumber Gray Mold disease; type: in vivo; conditions: 96 h, 4 days after inoculation, 23° C.
Method: Cucumber plants (cultivar: Satsukimidori), were each grown in a 15 cm.phi. plastic pot to the first leaf stage. The plants were sprayed with 10 ml/l pot of aqueous diluted suspensions of various types of wettable powders (including the wettable powder containing, as its active ingredient, compound No. 1 obtained in the Preparation Example 1, wettable powders, containing as active ingredients compounds Nos. 2-10 obtained in a manner similar to Preparation Example 1, and a wettable powder for a comparison chemical containing, as its active ingredient, tetrachloroisophthalonitrile obtained in manner similar to Preparation Example 1). After air-drying for 5 hours, the plants were inoculated with the mecelia of Botrytis cinerea inoculated with shaking in Yeast-Glucose liquid medium.
The cucumbers were kept in the humidic chamber at 23° C. for 4 days after inoculation and then checked with respect to their disease index. The checking was conducted as follows: The leaves were checked to determine the extent of lesion area and classified into six groups as indicated by indices 0, 1, 2, 3, 4, 5 based on the extent of the lesions and on the numbers of leaves n0, n1, n2, n3, n4, and n5 which corresponded to the indices, respectively, were also determined to calculate the disease index from the following equation.
1 lesion area of 1/5 times the total leaf area
2 lesion area of 2/5 times the total leaf area
3 lesion area of 3/5 times the total leaf area
4 lesion area of 4/5 times the total leaf area
5 lesion area above 4/5 times the total leaf area
(where n is the total number of checked leaves)
The preventive value was calculated from the following equation. [formula]

[9] = tested on: Botrytis allii; experiment: Antifungal Test (PDA medium), Botrytis allii; type: cell-based; conditions: 96 h, 25° C., 4 days, read-out: MIC Concentration
Method: as §1, §2

Nc1c(Cl)cc([N+](=O)[O-])cc1Cl [2,6dichloro-4-nitroaniline, reference compound]
Preventive Value ([1]; 500 ppm): 70.5%

CCCCNC(=O)n1c(NC(=O)OC)nc2ccccc21 [Benlate, reference compound]
MIC [2]: > 100 µg/mL | MIC [3]: > 100 µg/mL | MIC [4]: 0.4 µg/mL (≈ 1.38 µM) | MIC [5]: > 100 µg/mL

CN(C)C(=S)SSC(=S)N(C)C [Bis(dimethyl thiocarbamoyl)disulfide, reference compound]
pest or weed control at 500 ppm [6]: 83.3%

O=C1C2SCCN2C(=O)N1c1cc(Cl)cc(Cl)c1 (stereo not drawn) [Compound No. 1, 6-(3,5-dichlorophenyl)perhydroimidazo[5,1-b]thiazole-5,7-dion]
MIC [2]: 3.1 µg/mL (≈ 10.2 µM) | pest or weed control at 500 ppm [6]: 95.1% | MIC [7]: 1.6 µg/mL (≈ 5.28 µM) | MIC [3]: 3.1 µg/mL (≈ 10.2 µM) | MIC [4]: 3.1 µg/mL (≈ 10.2 µM) | pest or weed control at 62.5 ppm [8]: 100% | pest or weed control at 125 ppm [8]: 100% | pest or weed control at 250 ppm [8]: 100% | pest or weed control at 500 ppm [8]: 100% | MIC [9]: 6.2 µg/mL (≈ 20.5 µM) | MIC [5]: 3.1 µg/mL (≈ 10.2 µM) | Preventive Value ([1]; 50 ppm): 95.3% | Preventive Value ([1]; 100 ppm): 98.2% | Preventive Value ([1]; 200 ppm): 100%

O=C1C2SCCN2C(=S)N1c1cc(Cl)cc(Cl)c1 (stereo not drawn) [Compound No. 2, 6-(3,5-dichlorophenyl)perhydroimidazo[5,1-b]thiazole-5-thion-7-on]
pest or weed control at 500 ppm [6]: 88.4% | pest or weed control at 500 ppm [8]: 92% | Preventive Value ([1]; 50 ppm): 93.8% | Preventive Value ([1]; 100 ppm): 96.5% | Preventive Value ([1]; 200 ppm): 100%

CC12SCCN1C(=O)N(c1cc(Cl)cc(Cl)c1)C2=O (stereo not drawn) [Compound No. 3, 7a-methyl-6-(3,5-dichlorophenyl)perhydroimidazo[5,1-b]thiazole-5,7-dion]
MIC [2]: 0.8 µg/mL (≈ 2.52 µM) | pest or weed control at 500 ppm [6]: 96.2% | MIC [7]: 1.6 µg/mL (≈ 5.04 µM) | MIC [3]: 3.1 µg/mL (≈ 9.77 µM) | MIC [4]: 1.6 µg/mL (≈ 5.04 µM) | pest or weed control at 62.5 ppm [8]: 100% | pest or weed control at 125 ppm [8]: 100% | pest or weed control at 250 ppm [8]: 100% | pest or weed control at 500 ppm [8]: 100% | MIC [9]: 3.1 µg/mL (≈ 9.77 µM) | MIC [5]: 3.1 µg/mL (≈ 9.77 µM)

CC12SCCN1C(=S)N(c1cc(Cl)cc(Cl)c1)C2=O (stereo not drawn) [Compound No. 4, 7a-methyl-6-(3,5-dichlorophenyl)perhydroimidazo[5,1-b]thiazole-5-thion-7-on]
pest or weed control at 500 ppm [6]: 85.7% | pest or weed control at 500 ppm [8]: 93%

O=C1C2N(CCS2(=O)=O)C(=O)N1c1cc(Cl)cc(Cl)c1 (stereo not drawn) [Compound No. 5, 6-(3,5-dichlorophenyl)perhydroimidazo[5,1-b]thiazole-5,7-dion-1,1-dioxide]
pest or weed control at 500 ppm [6]: 89.6% | pest or weed control at 500 ppm [8]: 91%

CC12C(=O)N(c3cc(Cl)cc(Cl)c3)C(=O)N1CCS2(=O)=O (stereo not drawn) [Compound No. 6, 7a-methyl-6-(3,5-dichlorophenyl)perhydroimidazo[5,1-b]thiazole-5,7-dion-1,1-dioxide]
pest or weed control at 500 ppm [6]: 90.6% | pest or weed control at 500 ppm [8]: 90%

CCCC12SCCN1C(=O)N(c1cc(Cl)cc(Cl)c1)C2=O (stereo not drawn) [Compound No. 8, 7a-n-propyl-6-(3,5-dichlorophenyl)perhydroimidazo[5,1-b]thiazole-5,7-dion]
pest or weed control at 500 ppm [6]: 85.4% | pest or weed control at 500 ppm [8]: 97%

CCC12SCCN1C(=S)N(c1cc(Cl)cc(Cl)c1)C2=O (stereo not drawn) [Compound No. 9, 7a-ethyl-6-(3,5-dichlorophenyl)perhydroimidazo[5,1-b]thiazole-5-thion-7-on]
pest or weed control at 500 ppm [6]: 82.9% | pest or weed control at 500 ppm [8]: 96%

CCCC12SCCN1C(=S)N(c1cc(Cl)cc(Cl)c1)C2=O (stereo not drawn) [Compound No. 10, 7a-n-propyl-6-(3,5-dichlorophenyl)perhydroimidazo[5,1-b]thiazole-5-thion-7-on]
pest or weed control at 500 ppm [6]: 83.2% | pest or weed control at 500 ppm [8]: 94%

N#Cc1c(Cl)c(Cl)c(Cl)c(C#N)c1Cl [Tetrachloro isophthalonitrile, reference compound]
pest or weed control at 500 ppm [8]: 65%

CCC12SCCN1C(=O)N(c1cc(Cl)cc(Cl)c1)C2=O (stereo not drawn) [compound 7, 7a-ethyl-6-(3,5-dichlorophenyl)perhydroimidazo[5,1-b]thiazole-5,7-dion]
pest or weed control at 500 ppm [6]: 90.8% | pest or weed control at 500 ppm [8]: 100%
